Measurements reported in patent US20040266871A1, “Methods for treating alzheimer's disease using quinaldoyl-amine derivatives of oxo-and hydroxy-substituted hydrocarbons” (priority 2001, published 2004).

melting point: 142 to 143 °C
SMILES: CC(C)(C)OC(=O)NN(C[C@H](O)[C@H](Cc1ccccc1)NC(=O)OCc1ccccc1)C1CCCCC1 [Example 31, t-Butyl 3-cyclohexyl-3-[(2S, 3S)-2-hydroxy-3-(phenylmethoxycarbonyl)amino-4-phenylbutyl]carbazate]
